{"source": "the OligoGym collection", "note": "Bases are written 5' to 3'; sugars and linkages follow in the same order, as letters with counts (s phosphorothioate, o phosphodiester; PS: all linkages phosphorothioate). The collection does not say whether C is 5-methylated. l = locked nucleic acid (LNA); d = 2'-deoxy (DNA)", "data": [{"biological_target": "Tau", "test": "rat primary cortical neurons, FLIPR, 25 uM ASO", "values": [{"sequence": "CCCCATTCAGATCTATC (sugars l2 d13 l2, PS)", "calcium oscillation score": "98.8 % of control"}, {"sequence": "CCCCATTTATCCTTCATG (sugars l2 d14 l2, PS)", "calcium oscillation score": "49.4 % of control"}, {"sequence": "CCCCATTTTTGACATAT (sugars l2 d12 l3, PS)", "calcium oscillation score": "73.1 % of control"}, {"sequence": "CCCCTCCATTAAGAAC (sugars l3 d11 l2, PS)", "calcium oscillation score": "68.1 % of control"}, {"sequence": "CCCCTCCATTAAGAACCT (sugars l1 d15 l2, PS)", "calcium oscillation score": "88.6 % of control"}, {"sequence": "CCCGAGCCAAAGCC (sugars l3 d8 l3, PS)", "calcium oscillation score": "52.2 % of control"}, {"sequence": "CCCGAGCCAAAGCCGA (sugars l3 d10 l3, PS)", "calcium oscillation score": "50.6 % of control"}, {"sequence": "CCCGCCTTTAGTGATT (sugars l3 d10 l3, PS)", "calcium oscillation score": "30.9 % of control"}, {"sequence": "CCCGCCTTTAGTGATTACAG (sugars l3 d14 l3, PS)", "calcium oscillation score": "2.38 % of control"}, {"sequence": "CCCGGAACTCTCAACTCCTC (sugars l3 d14 l3, PS)", "calcium oscillation score": "18.1 % of control"}, {"sequence": "CCCGTCTTTGCTTTTACTGA (sugars l3 d14 l3, PS)", "calcium oscillation score": "0 % of control"}, {"sequence": "CCCGTGGTCTGTCT (sugars l3 d8 l3, PS)", "calcium oscillation score": "89.8 % of control"}, {"sequence": "CCCGTGGTCTGTCTTG (sugars l3 d10 l3, PS)", "calcium oscillation score": "0 % of control"}, {"sequence": "CCCTAAACCATGATCT (sugars l3 d10 l3, PS)", "calcium oscillation score": "89.7 % of control"}, {"sequence": "CCCTAAAGTCCCAG (sugars l3 d8 l3, PS)", "calcium oscillation score": "51.4 % of control"}, {"sequence": "CCCTAAAGTCCCAGG (sugars l3 d9 l3, PS)", "calcium oscillation score": "72.4 % of control"}, {"sequence": "CCCTAAAGTCCCAGGT (sugars l3 d10 l3, PS)", "calcium oscillation score": "76.2 % of control"}, {"sequence": "CCCTAAGCTCTCACTA (sugars l2 d12 l2, PS)", "calcium oscillation score": "69.1 % of control"}, {"sequence": "CCCTCACTTTTTATTCAAC (sugars l2 d14 l3, PS)", "calcium oscillation score": "76 % of control"}, {"sequence": "CCCTCCCTTTAATGCCAGGC (sugars l3 d14 l3, PS)", "calcium oscillation score": "6.04 % of control"}, {"sequence": "CCCTGAAACCATTAAC (sugars l3 d9 l4, PS)", "calcium oscillation score": "70.2 % of control"}, {"sequence": "CCCTGAAACCATTAACT (sugars l3 d12 l2, PS)", "calcium oscillation score": "69 % of control"}, {"sequence": "CCCTGAAAGAGGGCAG (sugars l3 d10 l3, PS)", "calcium oscillation score": "18.4 % of control"}, {"sequence": "CCCTTAATTTCACCC (sugars l3 d9 l3, PS)", "calcium oscillation score": "103 % of control"}, {"sequence": "CCCTTAATTTCACCCT (sugars l3 d10 l3, PS)", "calcium oscillation score": "80.9 % of control"}, {"sequence": "CCCTTAGACATAACACA (sugars l3 d12 l2, PS)", "calcium oscillation score": "65.5 % of control"}, {"sequence": "CCCTTCAACATCAGCCA (sugars l2 d13 l2, PS)", "calcium oscillation score": "47.6 % of control"}, {"sequence": "CCCTTGATCATATTTGTGGC (sugars l3 d14 l3, PS)", "calcium oscillation score": "35.7 % of control"}, {"sequence": "CCCTTTCAAACCAGCA (sugars l3 d11 l2, PS)", "calcium oscillation score": "91.8 % of control"}, {"sequence": "CCGAACTGCGAGGAGC (sugars l3 d10 l3, PS)", "calcium oscillation score": "5.43 % of control"}, {"sequence": "CCGAACTGCGAGGAGCAGCT (sugars l3 d14 l3, PS)", "calcium oscillation score": "38.9 % of control"}, {"sequence": "CCGAATTTACACCCAA (sugars l2 d10 l4, PS)", "calcium oscillation score": "79.1 % of control"}, {"sequence": "CCGCCTTTAGTGATTACAGG (sugars l3 d14 l3, PS)", "calcium oscillation score": "4.03 % of control"}, {"sequence": "CCGTGGTCTGTCTT (sugars l3 d8 l3, PS)", "calcium oscillation score": "20.9 % of control"}, {"sequence": "CCGTGGTCTGTCTTGG (sugars l3 d10 l3, PS)", "calcium oscillation score": "42.2 % of control"}, {"sequence": "CCTAAAGTCCCAGGTC (sugars l3 d10 l3, PS)", "calcium oscillation score": "62.9 % of control"}, {"sequence": "CCTAATAAAAACAATACTA (sugars l4 d11 l4, PS)", "calcium oscillation score": "62.3 % of control"}, {"sequence": "CCTAATCCTGTGCT (sugars l3 d8 l3, PS)", "calcium oscillation score": "62.6 % of control"}, {"sequence": "CCTAATCCTGTGCTT (sugars l3 d9 l3, PS)", "calcium oscillation score": "58.2 % of control"}, {"sequence": "CCTAATGAGCCACACT (sugars l3 d10 l3, PS)", "calcium oscillation score": "92.6 % of control"}, {"sequence": "CCTACTTTATTCCCTTA (sugars l2 d12 l3, PS)", "calcium oscillation score": "95.9 % of control"}, {"sequence": "CCTACTTTATTCCCTTAA (sugars l2 d12 l4, PS)", "calcium oscillation score": "86.8 % of control"}, {"sequence": "CCTAGAACACAACACAC (sugars l3 d10 l4, PS)", "calcium oscillation score": "58.6 % of control"}, {"sequence": "CCTATGCCAATTATTT (sugars l4 d8 l4, PS)", "calcium oscillation score": "68.2 % of control"}, {"sequence": "CCTCACTTTACACATTAAAT (sugars l4 d14 l2, PS)", "calcium oscillation score": "64.1 % of control"}, {"sequence": "CCTCCACCCTTACACA (sugars l1 d13 l2, PS)", "calcium oscillation score": "58.9 % of control"}, {"sequence": "CCTCCACCCTTACACAT (sugars l2 d13 l2, PS)", "calcium oscillation score": "55.6 % of control"}, {"sequence": "CCTCCATTAAGAACCTA (sugars l2 d12 l3, PS)", "calcium oscillation score": "90.1 % of control"}, {"sequence": "CCTCCCACCTATCAGTCA (sugars l1 d15 l2, PS)", "calcium oscillation score": "46.2 % of control"}, {"sequence": "CCTCCCTTTAATGCCAGGCC (sugars l3 d14 l3, PS)", "calcium oscillation score": "34.2 % of control"}, {"sequence": "CCTCCTAGAACACAACA (sugars l3 d12 l2, PS)", "calcium oscillation score": "57 % of control"}, {"sequence": "CCTCCTGGTTTATGATGGAT (sugars l3 d14 l3, PS)", "calcium oscillation score": "58.3 % of control"}, {"sequence": "CCTCCTTAACCATTAG (sugars l2 d11 l3, PS)", "calcium oscillation score": "54.5 % of control"}, {"sequence": "CCTCGTCAGCTAGCGT (sugars l3 d10 l3, PS)", "calcium oscillation score": "76 % of control"}, {"sequence": "CCTCTAGTTTTACCTA (sugars l2 d11 l3, PS)", "calcium oscillation score": "58.8 % of control"}, {"sequence": "CCTCTAGTTTTACCTAA (sugars l2 d11 l4, PS)", "calcium oscillation score": "72.9 % of control"}, {"sequence": "CCTCTCCTTTAAGAAAA (sugars l4 d10 l3, PS)", "calcium oscillation score": "74.9 % of control"}, {"sequence": "CCTCTGTCTTAACTTTT (sugars l3 d10 l4, PS)", "calcium oscillation score": "97 % of control"}, {"sequence": "CCTCTTCCACTACAAG (sugars l2 d12 l2, PS)", "calcium oscillation score": "57.8 % of control"}, {"sequence": "CCTCTTCCACTACAAGCT (sugars l2 d14 l2, PS)", "calcium oscillation score": "49.1 % of control"}, {"sequence": "CCTGAAACACCTTTTTCC (sugars l2 d14 l2, PS)", "calcium oscillation score": "71.1 % of control"}, {"sequence": "CCTGATCACAAACCCT (sugars l3 d10 l3, PS)", "calcium oscillation score": "100 % of control"}, {"sequence": "CCTGGTGGCGTTGGCC (sugars l3 d10 l3, PS)", "calcium oscillation score": "32.6 % of control"}, {"sequence": "CCTGGTTTATGATGGA (sugars l3 d10 l3, PS)", "calcium oscillation score": "26.1 % of control"}, {"sequence": "CCTGGTTTATGATGGATGTT (sugars l3 d14 l3, PS)", "calcium oscillation score": "0 % of control"}, {"sequence": "CCTGTCTCAAACACCTA (sugars l2 d12 l3, PS)", "calcium oscillation score": "60.6 % of control"}, {"sequence": "CCTTAAAGCTCCAACA (sugars l4 d10 l2, PS)", "calcium oscillation score": "94.6 % of control"}, {"sequence": "CCTTAATTTCACCC (sugars l3 d8 l3, PS)", "calcium oscillation score": "66.7 % of control"}, {"sequence": "CCTTAATTTCACCCT (sugars l3 d9 l3, PS)", "calcium oscillation score": "140 % of control"}, {"sequence": "CCTTAATTTCACCCTC (sugars l3 d10 l3, PS)", "calcium oscillation score": "132 % of control"}, {"sequence": "CCTTACCACTTTCAGG (sugars l3 d10 l3, PS)", "calcium oscillation score": "111 % of control"}, {"sequence": "CCTTACTTTCTACTCAAT (sugars l2 d12 l4, PS)", "calcium oscillation score": "62.1 % of control"}, {"sequence": "CCTTACTTTCTACTCAATT (sugars l3 d14 l2, PS)", "calcium oscillation score": "48.1 % of control"}, {"sequence": "CCTTGAAGTCAAGCTTCTCA (sugars l3 d14 l3, PS)", "calcium oscillation score": "66.4 % of control"}, {"sequence": "CCTTGATCATATTTGTGGCA (sugars l3 d14 l3, PS)", "calcium oscillation score": "28.6 % of control"}, {"sequence": "CCTTTGAAAGTCCTTT (sugars l2 d11 l3, PS)", "calcium oscillation score": "100 % of control"}, {"sequence": "CCTTTGAAAGTCCTTT (sugars l2 d12 l2, PS)", "calcium oscillation score": "96.4 % of control"}, {"sequence": "CCTTTGAAAGTCCTTT (sugars l3 d9 l4, PS)", "calcium oscillation score": "90.5 % of control"}, {"sequence": "CCTTTGAAAGTCCTTT (sugars l3 d11 l2, PS)", "calcium oscillation score": "121 % of control"}]}]}
